This is an account of results in patent US9321728B2, “Beta-alanine derivatives, pharmaceutically acceptable salts thereof, and pharmaceutical composition comprising same as active ingredient” (KOREA RESEARCH INSTITUTE OF CHEMICAL TECHNOLOGY, priority 2012, dated 2016).

As usually defined, the IC50 is the point on the concentration scale where inhibition reaches its midpoint. Read a low IC50 as greater potency in that assay.

The structures appear in SMILES notation.

Chain of human DGAT1 (O75907 whole entry): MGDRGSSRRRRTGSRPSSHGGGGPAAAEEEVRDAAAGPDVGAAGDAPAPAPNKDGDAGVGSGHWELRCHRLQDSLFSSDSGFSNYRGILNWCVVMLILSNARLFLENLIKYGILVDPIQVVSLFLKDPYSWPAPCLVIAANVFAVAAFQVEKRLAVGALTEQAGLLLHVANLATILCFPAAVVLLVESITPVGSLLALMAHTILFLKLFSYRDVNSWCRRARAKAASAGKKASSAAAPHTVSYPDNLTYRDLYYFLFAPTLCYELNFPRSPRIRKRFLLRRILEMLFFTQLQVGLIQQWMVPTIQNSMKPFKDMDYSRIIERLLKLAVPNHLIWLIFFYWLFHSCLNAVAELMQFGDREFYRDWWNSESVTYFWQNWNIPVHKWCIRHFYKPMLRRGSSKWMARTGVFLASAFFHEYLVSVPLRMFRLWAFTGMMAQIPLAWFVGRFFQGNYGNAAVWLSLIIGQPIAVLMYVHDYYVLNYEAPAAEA

One experiment addresses human DGAT1 (Homo sapiens (Human), UniProt O75907). Briefly: Human DGAT1 enzyme inhibition test (phospholipid FlashPlate, [14C]decanoyl-CoA). In kind it is biochemical. The following applies: lysate of Hep3B cells over-expressing human DGAT1 (5 μg/well); didecanoyl glycerol and [14C]decanoyl-CoA substrates. On the procedure: The cells were treated with 200 μg/ml G-418(Sigma) once every three days for 4 weeks to over-express the human DGAT1, thereby obtaining a stabilized cell line. The over-expressed cells were put into a homogenization buffer [250 mM sucrose, 10 mM Tris-HCl (pH 7.4), 1 mM EDTA] and lysed by a homogenization apparatus. Then, centrifugation was performed with 600×g for 15 minutes to remove cell residue, and the obtained cells were used for an enzyme inhibition test. Human DGAT-1 and mouse DGAT activity was determined as follows: Assay buffer [20 mM HEPES (pH 7.4), 100 mM MgCl2, 0.04% BSA] containing 500 μM of enzyme substrate (didecanoyl glycerol) and 7.5 μM radiolabeled acyl-CoA substrate ([^14C]decanoyl-CoA) was added to each well of a phospholipid FlashPlate (PerkinElmer Life Sciences). A small aliquot of lysate (5 μg/well) or mouse liver microsome (0.1 mg/well) was added to start the reaction, which was allowed to proceed in a 20° C. bath for 1 hour. and maintained overnight at room temperature. Next day, measurement was performed by Wallac 1450 Microbeta Trilux Liquid Scintillation Counter and Luminometer (PerkinElmer Life Science). […] A calculation method of inhibition degree (%) is as follows.
Compound `O=C(O)C[C@H]1CC[C@H](c2ccc(NC(=O)CCNC(=O)c3oc(-c4ccccc4)nc3C(F)(F)F)cc2)CC1` [Compound 15, trans-[4-(4-{3-[(2-phenyl-4-trifluoromethyloxazole-5-carbonyl)amino]propionylamino}phenyl)cyclohexyl]acetic acid] registered an IC50 of under 100 nM.
Still for that read-out and setting: the value for `CCOc1ccc(C(=O)NCCC(=O)Nc2ccc([C@H]3CC[C@H](CC(=O)O)CC3)cc2)cc1` [Compound 4, trans-(4-{4-[3-(4-ethoxybenzoylamino)propionylamino]phenyl}cyclohexyl)acetic acid] was under 50 nM; that for `Cc1nc(-c2ccccc2)sc1C(=O)NCCC(=O)Nc1ccc([C@H]2CC[C@H](CC(=O)O)CC2)cc1` [Compound 33, trans-[4-(4-{3-[(4-methyl-2-phenylthiazole-5-carbonyl)amino]propionylamino}phenyl)cyclohexyl]acetic acid] was under 500 nM.
Same read-out and setting: the value for `Cc1ccc(-c2nc(C(=O)NCCC(=O)Nc3ccc([C@H]4CC[C@H](CC(=O)O)CC4)cc3)c(C(F)(F)F)o2)cc1` [Compound 19, trans-[4-(4-{3-[(2-p-tolyl-5-trifluoromethyloxazole-4-carbonyl)amino]propionylamino}phenyl)cyclohexyl]acetic acid] was under 100 nM.
On the same count and under the same terms, the value for `O=C(O)C[C@H]1CC[C@H](c2ccc(NC(=O)CCNC(=O)c3cn(-c4ccc(Cl)cc4)nc3C(F)(F)F)cc2)CC1` [Compound 49, trans-{4-[4-(3-{[1-(4-chlorophenyl)-3-trifluoromethyl-1H-pyrazole-4-carbonyl]amino}propionylamino)phenyl]cyclohexyl}acetic acid] was under 100 nM; that for `O=C(O)C[C@H]1CC[C@H](c2ccc(NC(=O)CCNC(=O)c3ccc(OCC4CC4)cc3)cc2)CC1` [Compound 58, trans-(4-{4-[3-(4-cyclopropylmethoxybenzoylamino)propionylamino]phenyl}cyclohexyl)acetic acid] was under 500 nM.
As for `O=C(O)C[C@H]1CC[C@H](c2ccc(NC(=O)CCNC(=O)c3cn(-c4ccccc4Cl)nc3C(F)(F)F)cc2)CC1` [Compound 51, trans-{4-[4-(3-{[1-(2-Chlorophenyl)-3-trifluoromethyl-1H-pyrazole-4-carbonyl]amino}propionylamino)phenyl]cyclohexyl}acetic acid], the IC50 is under 100 nM.
On the same count and under the same terms, the value for `O=C(O)C[C@H]1CC[C@H](c2ccc(NC(=O)CCNC(=O)c3nc(-c4ccccc4Cl)oc3C(F)(F)F)cc2)CC1` [Compound 79, sodium; trans-{4-[4-(3-{[2-(2-chlorophenyl)-5-trifluoromethyloxazole-4-carbonyl]amino}propionylamino)phenyl]cyclohexyl}acetate] was under 50 nM.
Take `O=C(O)C[C@H]1CC[C@H](c2ccc(NC(=O)CCNC(=O)c3nc(-c4ccccc4Cl)oc3C(F)(F)F)cc2)CC1` [Compound 11, trans-{4-[4-(3-{[2-(2-chlorophenyl)-5-trifluoromethyloxazole-4-carbonyl]amino}propionylamino)phenyl]cyclohexyl}acetic acid]: the IC50 is under 50 nM.
On the same count and under the same terms, then `O=C(O)C[C@H]1CC[C@H](c2ccc(NC(=O)CCNC(=O)c3sc(-c4ccccc4)nc3C(F)(F)F)cc2)CC1` [Compound 37, trans-[4-(4-{3-[(2-phenyl-4-trifluoromethylthiazole-5-carbonyl)amino]propionylamino}phenyl)cyclohexyl]acetic acid], with under 100 nM.
For the compound `O=C(O)C[C@H]1CC[C@H](c2ccc(NC(=O)CCNC(=O)c3nc(-c4ccc(Br)cc4)oc3C(F)(F)F)cc2)CC1` [Compound 27, trans-{4-[4-(3-{[2-(4-bromophenyl)-5-trifluoromethyloxazole-4-carbonyl]amino}propionylamino)phenyl]cyclohexyl}acetic acid], the IC50 is under 100 nM.

The same experiment, now with this note: verbal summary of Table 1.
Consider `CCOc1ccc(C(=O)NCCC(=O)Nc2ccc([C@H]3CC[C@H](CC(=O)O)CC3)cc2)cc1` [Compound 4, trans-(4-{4-[3-(4-ethoxybenzoylamino)propionylamino]phenyl}cyclohexyl)acetic acid], for which the “in vitro inhibition activity with respect to DGAT1” value is “good to excellent”.
The same measure, in the same setting: then `O=C(O)C[C@H]1CC[C@H](c2ccc(NC(=O)CCNC(=O)c3nc(-c4ccccc4Cl)oc3C(F)(F)F)cc2)CC1` [Compound 11, trans-{4-[4-(3-{[2-(2-chlorophenyl)-5-trifluoromethyloxazole-4-carbonyl]amino}propionylamino)phenyl]cyclohexyl}acetic acid], with “good to excellent”.
